Test results published in US11566007B2, “Ras inhibitors” (Revolution Medicines, Inc., priority 2019, dated 2023).

Key:
Assay type in all cases: biochemical
[1] = target: KRAS G13D (Homo sapiens (Human), UniProt P01116+P62937, G13D); experiment: Ras-Raf (BRAF RBD) disruption / FRET / MOA assay, KRAS G13D; details: read-out: IC50* KRAS G13D FRET data
How it was run: (§1)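 Compounds, top final concentration 30 μM in 10-point 3-fold series, incubated 3 hours at 25° C with nucleotide-loaded Ras, cyclophilin A and BRAF RBD.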

[2] = target: K-Ras G12C (Homo sapiens (Human), UniProt P01116+P62937, G12C); experiment: Ras-Raf (BRAF RBD) disruption / FRET / MOA assay, KRAS G12C; details: KRAS G12C; Ras-Raf disruption/FRET/MOA assay; read-out: IC50* KRAS G12C FRET data
K-Ras G12C, sequence (P01116-2 other isoform, or with tags, fused parts or gaps G12C): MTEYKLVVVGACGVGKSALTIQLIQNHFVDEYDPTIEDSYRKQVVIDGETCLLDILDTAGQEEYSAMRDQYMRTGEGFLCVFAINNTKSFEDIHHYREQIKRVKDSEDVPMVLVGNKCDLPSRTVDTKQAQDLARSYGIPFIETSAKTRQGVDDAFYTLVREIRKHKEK
K-Ras G12C, sequence (P62937 whole entry): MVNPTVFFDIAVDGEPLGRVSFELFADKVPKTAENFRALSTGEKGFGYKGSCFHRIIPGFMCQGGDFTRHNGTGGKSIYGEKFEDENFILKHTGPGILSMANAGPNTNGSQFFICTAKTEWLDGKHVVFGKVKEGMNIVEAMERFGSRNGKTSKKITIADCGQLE
How it was run: as §1

[3] = target: KRAS G12S (Homo sapiens (Human), UniProt P01116+P62937, G12S); experiment: Ras-Raf (BRAF RBD) disruption / FRET / MOA assay, KRAS G12S; details: Ras-Raf disruption/FRET/MOA assay; class symbols; read-out: KRAS G12S FRET data IC50
KRAS G12S, sequence (P01116-2 other isoform, or with tags, fused parts or gaps G12S): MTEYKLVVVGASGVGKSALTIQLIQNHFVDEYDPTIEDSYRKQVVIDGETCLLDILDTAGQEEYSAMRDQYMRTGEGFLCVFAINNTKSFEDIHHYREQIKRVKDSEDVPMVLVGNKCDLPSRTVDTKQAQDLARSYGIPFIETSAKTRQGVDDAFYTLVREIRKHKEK
KRAS G12S, sequence (P62937 whole entry): as the sequence (P62937 whole entry) above
How it was run: as §1

[4] = target: NRAS Q61K (Homo sapiens (Human), UniProt P01111+P62937, Q61K); experiment: Ras-Raf (BRAF RBD) disruption / FRET / MOA assay, NRAS Q61K; details: NRAS Q61K; Ras-Raf disruption/FRET/MOA assay; read-out: IC50* NRAS Q61K FRET data
NRAS Q61K, sequence (P01111 whole entry Q61K): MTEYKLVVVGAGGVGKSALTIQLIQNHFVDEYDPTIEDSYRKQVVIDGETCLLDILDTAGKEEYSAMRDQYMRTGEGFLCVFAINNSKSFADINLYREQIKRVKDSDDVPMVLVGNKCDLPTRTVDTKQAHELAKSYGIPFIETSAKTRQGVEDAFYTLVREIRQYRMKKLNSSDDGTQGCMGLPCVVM
NRAS Q61K, sequence (P62937 whole entry): as the sequence (P62937 whole entry) above
How it was run: (§2)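 TR-FRET disruption of nucleotide-loaded Ras binding to BRAF RBD via compound-driven ternary complex with cyclophilin A. Compound as 10-point 3-fold series from 30 μM final, 3 h at 25° C, then anti-His Eu-W1024 (10 nM) and anti-GST allophycocyanin (50 nM) for 1.5 h. IC50 from decreased FRET ratio versus DMSO.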

[5] = target: NRAS G12C (Homo sapiens (Human), UniProt P01111+P62937, G12C); experiment: Ras-Raf (BRAF RBD) disruption / FRET / MOA assay, NRAS G12C; details: read-out: IC50* NRAS G12C FRET data
NRAS G12C, sequence (P01111 whole entry G12C): as the sequence (P01111 whole entry Q61K) above, with G12C, K61Q counted along it
NRAS G12C, sequence (P62937 whole entry): as the sequence (P62937 whole entry) above
How it was run: as §1

[6] = target: KRAS WT (Homo sapiens (Human), UniProt P01116+P62937); experiment: Ras-Raf (BRAF RBD) disruption / FRET / MOA assay, KRAS WT; details: read-out: IC50* KRAS WT FRET data
KRAS WT, sequence (P01116-2 other isoform, or with tags, fused parts or gaps): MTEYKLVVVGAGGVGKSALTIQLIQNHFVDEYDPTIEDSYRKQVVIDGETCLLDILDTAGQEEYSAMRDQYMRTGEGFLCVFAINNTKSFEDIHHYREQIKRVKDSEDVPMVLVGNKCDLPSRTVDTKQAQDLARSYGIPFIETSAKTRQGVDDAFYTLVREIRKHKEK
KRAS WT, sequence (P62937 whole entry): as the sequence (P62937 whole entry) above
How it was run: as §1

[7] = target: K-Ras G13C (Homo sapiens (Human), UniProt P01116+P62937, G13C); experiment: Ras-Raf (BRAF RBD) disruption / FRET / MOA assay, KRAS G13C; details: KRAS G13C; Ras-Raf disruption/FRET/MOA assay; read-out: IC50* KRAS G13C FRET data
K-Ras G13C, sequence (P01116-2 other isoform, or with tags, fused parts or gaps G13C): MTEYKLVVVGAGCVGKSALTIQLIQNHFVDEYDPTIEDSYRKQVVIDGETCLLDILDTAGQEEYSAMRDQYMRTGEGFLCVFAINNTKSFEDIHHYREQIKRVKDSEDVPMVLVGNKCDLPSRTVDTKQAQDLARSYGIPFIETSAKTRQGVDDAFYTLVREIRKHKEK
K-Ras G13C, sequence (P62937 whole entry): as the sequence (P62937 whole entry) above
How it was run: as §1

[8] = target: NRAS Q61R (Homo sapiens (Human), UniProt P01111+P62937, Q61R); experiment: Ras-Raf (BRAF RBD) disruption / FRET / MOA assay, NRAS Q61R; details: NRAS Q61R; Ras-Raf disruption/FRET/MOA assay; read-out: IC50* NRAS Q61R FRET data
NRAS Q61R, sequence (P01111 whole entry Q61R): as the sequence (P01111 whole entry Q61K) above, with K61R counted along it
NRAS Q61R, sequence (P62937 whole entry): as the sequence (P62937 whole entry) above
How it was run: as §2

[9] = target: KRAS G12D (Homo sapiens (Human), UniProt P01116+P62937, G12D); experiment: Ras-Raf (BRAF RBD) disruption / FRET / MOA assay, KRAS G12D; details: Ras-Raf disruption/FRET/MOA assay; class symbols; read-out: KRAS G12D FRET data IC50
KRAS G12D, sequence (P01116-2 other isoform, or with tags, fused parts or gaps G12D): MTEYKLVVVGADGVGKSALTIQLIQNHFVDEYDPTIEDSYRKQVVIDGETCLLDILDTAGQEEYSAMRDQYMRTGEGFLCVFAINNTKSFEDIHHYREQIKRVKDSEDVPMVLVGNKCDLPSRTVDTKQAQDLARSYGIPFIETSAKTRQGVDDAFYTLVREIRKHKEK
KRAS G12D, sequence (P62937 whole entry): as the sequence (P62937 whole entry) above
How it was run: as §1

[10] = target: KRAS Q61H (Homo sapiens (Human), UniProt P01116+P62937, Q61H); experiment: Ras-Raf (BRAF RBD) disruption / FRET / MOA assay, KRAS Q61H; details: Ras-Raf disruption/FRET/MOA assay; class symbols; read-out: KRAS Q61H FRET data IC50
KRAS Q61H, sequence (P01116-2 other isoform, or with tags, fused parts or gaps Q61H): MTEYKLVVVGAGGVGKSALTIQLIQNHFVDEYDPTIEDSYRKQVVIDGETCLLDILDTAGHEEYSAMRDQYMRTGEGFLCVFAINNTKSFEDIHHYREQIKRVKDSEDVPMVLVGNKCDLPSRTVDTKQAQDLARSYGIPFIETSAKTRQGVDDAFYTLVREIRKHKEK
KRAS Q61H, sequence (P62937 whole entry): as the sequence (P62937 whole entry) above
How it was run: as §2

KRAS G13D, sequence (P01116-2 other isoform, or with tags, fused parts or gaps G13D): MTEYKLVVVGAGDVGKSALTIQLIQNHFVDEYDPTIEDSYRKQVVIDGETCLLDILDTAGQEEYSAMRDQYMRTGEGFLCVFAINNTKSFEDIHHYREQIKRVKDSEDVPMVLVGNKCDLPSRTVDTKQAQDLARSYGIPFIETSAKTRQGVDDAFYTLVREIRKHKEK
KRAS G13D, sequence (P62937 whole entry): as the sequence (P62937 whole entry) above

SMILES | IC50 [1] [nM] | IC50 [2] [nM] | IC50 [3] [nM] | IC50 [4] [nM] | IC50 [5] [nM] | IC50 [6] [nM] | IC50 [7] [nM] | IC50 [8] [nM] | IC50 [9] [nM] | IC50 [10] [nM]
C=CC(=O)N1CC2(CCN2C(=O)N(C)[C@H](C(=O)N[C@H]2Cc3cccc(n3)-c3ccc4c(c3)c(c(-c3cccnc3[C@H](C)OC)n4CC)CC(C)(C)COC(=O)[C@@H]3CCCN(N3)C2=O)C(C)C)C1 (atropisomer, axis not shown) [Example A636] | 1000 to 10000 | 10 to 100 | 100 to 1000 | 100 to 1000 | 10 to 100 | 100 to 1000 | 100 to 1000 | 100 to 1000 | 1000 to 10000 | 100 to 1000
CCn1c(-c2cccnc2[C@H](C)OC)c2c3cc(ccc31)-c1csc(n1)C[C@H](NC(=O)C[C@@H](C)OC1CN(C(=O)C#CC(C)(C)N(C)C)C1)C(=O)N1CCC[C@H](N1)C(=O)OCC(C)(C)C2 (atropisomer, axis not shown) [Example A638] | 1000 to 10000 | < 10 | 1000 to 10000 | 1000 to 10000 | < 10 | 1000 to 10000 | 1000 to 10000 | 1000 to 10000 | > 10000 | 1000 to 10000
C=CC(=O)N1CC[C@H](C(=O)N(C)[C@H](C(=O)N[C@H]2Cc3cccc(c3)-c3ccc4c(c3)c(c(-c3cccnc3[C@H](C)OC)n4CC)CC(C)(C)COC(=O)[C@@H]3CCCN(N3)C2=O)[C@@H](C)C(F)(F)F)C1 (atropisomer, axis not shown) [Example A640] | 1000 to 10000 | 100 to 1000 | 1000 to 10000 | 1000 to 10000 | 100 to 1000 | 1000 to 10000 | 100 to 1000 | 1000 to 10000 | 1000 to 10000 | 100 to 1000
CCn1c(-c2cccnc2[C@H](C)OC)c2c3cc(ccc31)N1CCO[C@@H](C[C@H](NC(=O)[C@H](C(C)C)N(C)C(=O)C3(F)CCN(C(=O)/C=C/CN(C)C)CC3)C(=O)N3CCC[C@H](N3)C(=O)OCC(C)(C)C2)C1 (atropisomer, axis not shown) [Example A645] | 1000 to 10000 | 10 to 100 | 1000 to 10000 | > 10000 | 10 to 100 | 1000 to 10000 | 100 to 1000 | > 10000 | 1000 to 10000 | 1000 to 10000
CC#CC(=O)N1CC2(CCN2C(=O)N(C)[C@H](C(=O)N[C@H]2Cc3nc(cs3)-c3ccc4c(c3)c(c(-c3cccnc3[C@H](C)OC)n4CC)CC(C)(C)COC(=O)[C@@H]3CCCN(N3)C2=O)C(C)C)C1 (atropisomer, axis not shown) [Example A655] | 100 to 1000 | 100 to 1000 | 100 to 1000 | 10 to 100 | 100 to 1000 | 100 to 1000 | 100 to 1000 | 10 to 100 | 1000 to 10000 | 10 to 100
C=CC(=O)N1CC[C@]2(CCN2C(=O)N(C)[C@H](C(=O)N[C@H]2Cc3nc(cs3)-c3ccc4c(c3)c(c(-c3cccnc3[C@H](C)OC)n4CC)CC(C)(C)COC(=O)[C@@H]3CCCN(N3)C2=O)C(C)C)C1 (atropisomer, axis not shown) [Example A662] | 100 to 1000 | 10 to 100 | 100 to 1000 | 10 to 100 | 10 to 100 | 100 to 1000 | 100 to 1000 | 100 to 1000 | 100 to 1000 | 10 to 100
CCn1c(-c2cccnc2[C@H](C)OC)c2c3cc(ccc31)-c1csc(n1)C[C@H](NC(=O)[C@H](C(C)C)N(C)C(=O)N1CCCOC13CN(C(=O)C#CC(C)(C)N(C)C)C3)C(=O)N1CCC[C@H](N1)C(=O)OCC(C)(C)C2 (atropisomer, axis not shown) [Example A666] | > 10000 | 1000 to 10000 | > 10000 | > 10000 | 1000 to 10000 | > 10000 | > 10000 | > 10000 | > 10000 | 1000 to 10000
C=CC(=O)N1CC[C@]2(COCCN2C(=O)N(C)[C@H](C(=O)N[C@H]2Cc3nc(cs3)-c3ccc4c(c3)c(c(-c3cccnc3[C@H](C)OC)n4CC)CC(C)(C)COC(=O)[C@@H]3CCCN(N3)C2=O)C(C)C)C1 (atropisomer, axis not shown) [Example A676] | 1000 to 10000 | 100 to 1000 | 1000 to 10000 | 100 to 1000 | 10 to 100 | 100 to 1000 | 1000 to 10000 | 100 to 1000 | 1000 to 10000 | 10 to 100
C=CC(=O)N1CC2(CCN(C(=O)N(C)[C@H](C(=O)N[C@H]3Cc4cccc(c4)-c4ccc5c(c4)c(c(-c4cccnc4[C@H](C)OC)n5CC)CC(C)(C)COC(=O)[C@@H]4CCCN(N4)C3=O)C(C)C)CC2)C1 (atropisomer, axis not shown) [Example A680] | 1000 to 10000 | 100 to 1000 | 100 to 1000 | 100 to 1000 | 100 to 1000 | 100 to 1000 | 10 to 100 | 100 to 1000 | 1000 to 10000 | 100 to 1000
C=CC(=O)N1CC[C@@H]2[C@H](C1)CN2C(=O)N(C)[C@H](C(=O)N[C@H]1Cc2nc(cs2)-c2ccc3c(c2)c(c(-c2cccnc2[C@H](C)OC)n3CC)CC(C)(C)COC(=O)[C@@H]2CCCN(N2)C1=O)C(C)C (atropisomer, axis not shown) [Example A688] | 1000 to 10000 | 100 to 1000 | 1000 to 10000 | 100 to 1000 | 100 to 1000 | 100 to 1000 | 100 to 1000 | 100 to 1000 | 1000 to 10000 | 100 to 1000
C=CC(=O)N1CCC2(CCCN(C(=O)N(C)[C@H](C(=O)N[C@H]3Cc4nc(cs4)-c4ccc5c(c4)c(c(-c4cccnc4[C@H](C)OC)n5CC)CC(C)(C)COC(=O)[C@@H]4CCCN(N4)C3=O)C(C)C)C2)CC1 (atropisomer, axis not shown) [Example A696] | 1000 to 10000 | 100 to 1000 | 100 to 1000 | 10 to 100 | 100 to 1000 | 100 to 1000 | 100 to 1000 | 100 to 1000 | 100 to 1000 | 10 to 100
CCn1c(-c2cccnc2[C@H](C)OC)c2c3cc(ccc31)-c1cccc(c1)C[C@H](NC(=O)[C@@H](COC1CN(C(=O)C#CC(C)(C)O)C1)C(C)C)C(=O)N1CCC[C@H](N1)C(=O)OCC(C)(C)C2 (atropisomer, axis not shown) [Example A708] | > 10000 | 100 to 1000 | > 10000 | > 10000 | 100 to 1000 | 1000 to 10000 | 1000 to 10000 | > 10000 | > 10000 | 1000 to 10000
